Test results: US20240115654A1, “INTRAVENOUS ADMINISTRATION OF ENGINEERED ANTIMICROBIAL AMPHIPHILIC PEPTIDES” (priority 2021, published 2024)
In brackets after ≈: the same amount, converted by molar mass. Peptide text beside a SMILES is read from it.

Tested on: Staphylococcus aureus isolates (n = 104)
Assay: microbe, parasite or virus in culture
Protocol: Comparator antibiotics were supplied by Micromyx, and stock solutions were prepared on the first day of testing using solvents recommended by CLSI (1). Stock solutions of all compounds were made at 40× the final testing concentration and stored at −80° C. prior to testing. Information regarding compound source, catalog and lot number, testing concentrations and drug diluent for the comparators and test agent are detailed below in Table 3.
The test organisms evaluated in this study consisted of clinical isolates from the Micromyx Repository and reference isolates from the American Type Culture Collection (ATCC; Manassas, VA). The clinical isolates were obtained from USA hospitals. Upon initial receipt at Micromyx, the organisms were sub-cultured onto an appropriate agar medium. Following incubation, colonies were harvested from these plates and cell suspensions prepared and frozen at −80° C. with a cryoprotectant. Prior to testing, the isolates were streaked from frozen vials onto Trypticase Soy Agar with 5% sheep blood (Becton Dickenson [BD]; Sparks, MD; Lot Nos. 7173618, 7166759, 7208688, 72144895, 7228505 and Remel Lenexa, KS Lot No. 212574). Plates were incubated at 35° C. overnight.
Mueller Hinton II broth (MHB II; BD; Lot Nos. 6258541 and 7143896) was used for MIC testing of aerobic organisms.
MIC values were determined using a broth microdilution procedure described by CLSI (1, 3). Automated liquid handlers (Multidrop 384, Labsystems, Helsinki, Finland; Biomek 2000 and Biomek FX, Beckman Coulter, Fullerton CA) were used to conduct serial dilutions and liquid transfers.
To prepare the drug mother plates, which would provide the serial drug dilutions for the replicate daughter plates, the wells of columns 2-12 of standard 96-well microdilution plates (Costar 3795) were filled with 150 μl of the designated diluent for each row of drug. The test articles and comparator compounds (300 μl at 40× the highest concentration to be tested) were dispensed into the appropriate wells in column 1. The Biomek 2000 was then used to make 2-fold serial dilutions in the mother plates from column 1 through column 11. The wells of Column 12 contained no drug and served as the organism growth control wells for the assay.
The daughter plates were loaded with 185 μL per well of MHB II using the Multidrop 384. The daughter plates were completed on the Biomek FX instrument which transferred 5 μL of drug solution from each well of a mother plate to the corresponding well of each daughter plate in a single step. A standardized inoculum of each test organism was prepared per CLSI methods (1). The inoculum for each organism was dispensed into sterile reservoirs divided by length (Beckman Coulter), and the Biomek 2000 was used to inoculate the plates. Daughter plates were placed on the Biomek 2000 work surface in reverse orientation so that inoculation took place from low to high drug concentration.
Plates were stacked 3-4 high, covered with a lid on the top plate, placed in plastic bags, and incubated at 35° C. for 16 to 20 hrs. Following incubation, the microplates were removed from the incubator and viewed from the bottom using a plate viewer. […] The MIC was read and recorded as the lowest concentration of drug that inhibited visible growth of the organism.
Clinical breakpoints to determine percent resistance within a given organism group were obtained from CLSI (3), with the exception of colistin for K. pneumoniae, Enterobacter spp., and E. coli, which are only available from EUCAST.

[1] = Staphylococcus aureus (n = 104), all methicillin-resistant

Compound `CC(C)[C@H](NC(=O)[C@H](Cc1c[nH]c2ccccc12)NC(=O)[C@H](CCCNC(=N)N)NC(=O)[C@H](CCCNC(=N)N)NC(=O)[C@@H](NC(=O)[C@@H](NC(=O)[C@H](CCCNC(=N)N)NC(=O)[C@@H](NC(=O)[C@@H](NC(=O)[C@H](CCCNC(=N)N)NC(=O)[C@H](CCCNC(=N)N)NC(=O)[C@H](Cc1c[nH]c2ccccc12)NC(=O)[C@@H](NC(=O)[C@H](CCCNC(=N)N)NC(=O)[C@H](CCCNC(=N)N)NC(=O)[C@@H](NC(=O)[C@H](CCCNC(=N)N)NC(=O)[C@H](CCCNC(=N)N)NC(=O)[C@@H](NC(=O)[C@H](Cc1c[nH]c2ccccc12)NC(=O)[C@H](CCCNC(=N)N)NC(=O)[C@@H](N)CCCNC(=N)N)C(C)C)C(C)C)C(C)C)C(C)C)C(C)C)C(C)C)C(C)C)C(=O)N[C@@H](CCCNC(=N)N)C(=O)N[C@@H](CCCNC(=N)N)C(N)=O` [SEQ ID NO: 1] (H-RRWVRRVRRVWRRVVRVVRRWVRR-NH2) has an MIC50 (S. aureus MRSA, n=104) of 4 µg/mL (≈ 1.18 µM), an MIC90 (S. aureus MRSA, n=104) of 8 µg/mL (≈ 2.35 µM) and an MIC range (S. aureus MRSA, n=104) of 1 to 16 µg/mL. The MIC50 [1] was 4 µg/mL (≈ 1.18 µM), the MIC90 [1] was 8 µg/mL (≈ 2.35 µM) and the “Mode (MIC)” value [1] was 4 µg/mL.
